Results as given in patent US11352334B2, “3-(5-chloro-2-oxobenzo[d]oxazol-3(2H)-yl) propanoic acid derivatives as KMO inhibitors” (THE UNIVERSITY COURT OF THE UNIVERSITY OF EDINBURGH, priority 2013, dated 2022).

Molecular target: T1, human KMO (Homo sapiens, UniProt O15229)
T1 construct: Full length human KMO was amplified by PCR from pcDNA5/FRT/V5-His-TOPO/hKMO; made in house; host or cells: Spodoptera frugiperda Sf9 cells (baculovirus); purified membrane fraction used
Assay: KMO MS Rapidfire assay
Format: biochemical
Conditions: human KMO-membranes from Sf9 cells, 10 μM Kynurenine, 200 μM NADPH, 3-HK detected by MS
Protocol: pFastbac1 GST-KMO was transposed into the baculovirus genome using the BAC-to-BAC technology (Invitrogen) and bacmid DNA was prepared and transfected into Spodoptera frugiperda (Sf9) cells using Cellfectin II (Invitrogen).
Cells were harvested after 48 hours and disrupted by blending in 50 mM Hepes, pH 7.4, 1 mM EDTA buffer containing protease inhibitors. A low speed spin (400 g) was used to remove cell debris, followed by a high speed spin (75 000 g) to pellet the membranes. The membranes were purified in a discontinuous sucrose density gradient by re-suspending in 10% (w/v) sucrose and layering over 40% (w/v) sucrose, both in the above buffer. This was centrifuged at 150 000 g and the purified membranes were taken from the interface, collected by centrifugation at 100 000 g, resuspended in buffer and aliquoted for storage at −80° C.
11 point, 3-fold serial dilutions of test compounds were prepared in DMSO and 100 nL of these solutions were dispensed into 384-well V-base polypropylene plates (Greiner Bio-one, Stonehouse, UK) using an Echo 555 acoustic dispenser (Labcyte, Sunnyvale, Calif.). This gave a final assay concentration range between 100 μM and 1.7 nM in 10 μL final assay volume (see below). 100 nL DMSO was dispensed into columns 6 and 18 for high and low controls, respectively, with prior inactivation of the enzyme in column 18 by pre-dispense of 30 μL of 0.5% (v/v) TFA. […]

T1 sequence (O15229 whole entry): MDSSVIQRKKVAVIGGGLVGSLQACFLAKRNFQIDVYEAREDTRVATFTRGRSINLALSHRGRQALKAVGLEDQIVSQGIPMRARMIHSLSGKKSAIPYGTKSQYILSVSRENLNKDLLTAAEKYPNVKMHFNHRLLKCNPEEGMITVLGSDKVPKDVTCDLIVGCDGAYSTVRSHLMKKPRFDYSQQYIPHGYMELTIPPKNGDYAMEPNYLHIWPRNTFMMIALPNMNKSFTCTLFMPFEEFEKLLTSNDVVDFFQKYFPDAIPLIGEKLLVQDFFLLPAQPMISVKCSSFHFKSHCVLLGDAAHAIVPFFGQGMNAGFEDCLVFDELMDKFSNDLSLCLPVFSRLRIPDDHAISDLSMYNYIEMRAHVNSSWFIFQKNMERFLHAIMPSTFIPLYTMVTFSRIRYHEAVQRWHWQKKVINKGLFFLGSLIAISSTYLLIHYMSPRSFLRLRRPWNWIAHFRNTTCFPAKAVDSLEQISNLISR

median pIC50: 7.9
SMILES: Cc1cc2oc(=O)n(CCC(=O)O)c2cc1Cl [Example 1, 3-(5-Chloro-6-methyl-2-oxobenzo[d]oxazol-3(2H)-yl)propanoic Acid]
